Structures are written as SMILES. Values joined by “and” are separate entries in the source; they are usually repeats but may differ in a detail not shown here. Equal values may be shown once. Read-outs that look alike come from different tables or passages of the source.

For assay [1], the system named is acetic acid-induced pain model. Kind of assay: acetic acid-induced pain model (writhing syndrome test). The following applies: for pain inhibition effect: FIG. 3, compounds isolated from ZPE6A or ZPE6C fraction; for Pain inhibition percentage (%)(50 mg/kg, po): active ingredients. The class given is in vivo, ICR mice. The method, then:
The acetic acid-induced writhing syndrome test is an animal model for determining analgesic effects. It is mainly used to test the effect of analgesics on the peripheral nervous system. The experimental animals used herein were 5-week-old ICR mice purchased from Central Laboratory Animals (Seoul) and acclimated in a breeding room maintained at a humidity of 50% and a temperature of 24 to 26°C for one week. Feed and water were supplied for free intake. […] The test substance was orally administered 60 minutes before the induction of pain to determine the degree of analgesic effect.

Assay [2] concerns pain response induced by formalin. Kind of assay: formalin test. The class given is in vivo, rats. The note with it: 100 mg/kg. The method, then: The formalin test is primarily used to measure the analgesic effects of drugs in chronic pain models, in which the pain stimulus and response are not temporary but persistent. The pain response induced by formalin includes phase 1 and phase 2, and these two phases can be distinguished pharmacologically. The test substance and acetaminophen or aspirin, as a positive control group, were orally administered 60 minutes before the induction of pain, 10% formalin was injected subcutaneously into the hind legs of rats, and the number of actions in response to pain was measured every 3 minutes. The action in response to pain was measured separately in phase 1 (0-12 minutes) and phase 2 (24-39 minutes).

In a further assay the test system is mast cell RBL-2H3. Put plainly: inhibition of mast cell degranulation (β-hexosaminidase secretion). In kind it is cell-based. The note with it: for inhibition at 25 µg/mL / inhibition at 100 µg/mL: Rattus norvegicus. The method, then:
Inhibition of inflammation-promoting cytokines has been reported to inhibit autoimmune diseases such as atopy. Thus, in the present embodiment, the mast cell RBL-2H3 was treated with the Zanthoxylum piperitum leaf extract or active compounds (quercitrin, afzelin) to evaluate the secretion inhibition ability of β-hexosaminidase. That is, the effect of inhibiting mast cell degranulation by the Zanthoxylum piperitum leaf extract or the active compound (quercitrin, afzelin) was found.

The subject of assay [3] is collagen-induced arthritis animal model. Put plainly: collagen-induced arthritis animal model (clinical score, micro-CT). The class given is in vivo, DBA/1J mice. Details: scale not given here. Here is the method:
As one of the methods for evaluating the therapeutic effect of rheumatoid arthritis, the antirheumatic efficacy of each test substance was measured in a collagen-induced arthritis animal model. The experimental animals herein used were 5-week-old DBA/1J mice purchased from Central Laboratory Animals (Seoul) and acclimated in a breeding room maintained at a humidity of 50% and a temperature of 24 to 26°C for one week. Feed and water were supplied for free intake. In order to induce arthritis, type 2 collagen and CFA (complete Freund's adjuvant) were mixed to obtain an emulsion. 200 µL of the emulsion was injected subcutaneously […] into the lower part of the tail 2 to 3 cm away from the torso of DBA/1J mice, and the same amount of the emulsion was secondarily injected in […] into the lower part of the tail in the same manner as in the primary injection 21 days after exposure to a primary antigen. A positive control group was orally administered with dexamethasone at a dose of 1 mg/kg from the 22nd day after primary antigen exposure, the group administered with the Zanthoxylum piperitum leaf extract was orally treated at 100 mg/kg for 3 weeks, rheumatoid arthritis lesions were visually observed and graded, and the arthritis alleviation efficacy was measured as a clinical score.

[4] abbreviates: RBL-2H3, read-out: degranulation inhibitory activity compared to the ketotifen drug.
Setting [5] is: individual animals No. 1-7, extract 100 mg/kg oral 3 weeks, dexamethasone 1 mg/kg oral, listed as Positive control group.

Turning to `O=C(O)c1ccccc1C(=O)O` [1,2-benzenedicarboxylic acid], in assay [1], the pain inhibition effect result is recorded as “excellent pain inhibition effects”.
For `CC(C)(C)c1ccc(O)c(C(C)(C)C)c1` [2,4-di-tert-butylphenol], the pain inhibition effect entry in assay [1] is “excellent pain inhibition effects”.
The same measure, in the same setting: the result for `CC(=O)c1ccc(O)cc1` [4'-hydroxyacetophenone] reads “excellent pain inhibition effects”.
For `CC(=O)Nc1ccc(O)cc1` [Acetaminophen], the “Inhibition (%) Phase 1” value in assay [2] (phase 1 (0-12 minutes)) turned out to be 35.2%. Moreover, the “Inhibition (%) Phase 2” value in assay [2] (phase 2 (24-39 minutes)) worked out at 41.7%.
For the compound `C[C@@H]1O[C@@H](Oc2c(-c3ccc(O)cc3)oc3cc(O)cc(O)c3c2=O)[C@H](O)[C@H](O)[C@H]1O` [Afzelin, camphorol-3-O-alpha-L-rhamnoside], the inhibition at 25 µg/mL with mast cell RBL-2H3 (RBL-2H3, treatment dose of 25 µg/mL, read-out: degranulation inhibitory activity compared to the ketotifen drug) is approximately 195%. Moreover, the inhibition at 100 µg/mL in the assay on mast cell RBL-2H3 (RBL-2H3, treatment dose of 100 µg/mL, read-out: degranulation inhibitory activity compared to the ketotifen drug) was approximately 93%. Besides, the “Effect of inhibiting degranulation (% inhibition)” value (“Effect … (% inhibition)” below) with mast cell RBL-2H3 (treatment amount 12.5 µg/mL) amounted to 25.1 ± 1.68 % inhibition; in the assay with mast cell RBL-2H3 (treatment amount 25 µg/mL), 39.4 ± 1.06 % inhibition; in the assay on mast cell RBL-2H3 (treatment amount 50 µg/mL), 41.3 ± 1.67 % inhibition; with mast cell RBL-2H3 (treatment amount 100 µg/mL), 40.9 ± 0.98 % inhibition. Further, the “Pain inhibition percentage (%)(50 mg/kg, po)” value in assay [1] came out at 93.6%.
In the case of `CN1CCC(=C2c3ccccc3CC(=O)c3sccc32)CC1` [Ketotifen], the “Effect … (% inhibition)” value in the assay on mast cell RBL-2H3 (treatment amount 12.5 µg/mL) worked out at 13.8 ± 0.88 % inhibition; in the assay on mast cell RBL-2H3 (treatment amount 25 µg/mL), 20.2 ± 0.84 % inhibition; in the assay on mast cell RBL-2H3 (treatment amount 50 µg/mL) it was 32.8 ± 1.04 % inhibition; in the assay on mast cell RBL-2H3 (treatment amount 100 µg/mL), 43.9 ± 1.45 % inhibition.
`C[C@@H]1O[C@@H](Oc2c(-c3ccc(O)c(O)c3)oc3cc(O)cc(O)c3c2=O)[C@H](O)[C@H](O)[C@H]1O` [Quercitrin, quercetin-3-O-alpha-L-rhamnoside]: the inhibition at 25 µg/mL with mast cell RBL-2H3 (setting [4]) was approximately 70%. The inhibition at 100 µg/mL with mast cell RBL-2H3 (setting [4]) was approximately 50%. The “Effect … (% inhibition)” value in the assay with mast cell RBL-2H3 (treatment amount 12.5 µg/mL) worked out at 6.3 ± 0.13 % inhibition; in the assay with mast cell RBL-2H3 (treatment amount 25 µg/mL), 14.3 ± 0.11 % inhibition; with mast cell RBL-2H3 (treatment amount 50 µg/mL), 19.8 ± 0.28 % inhibition; with mast cell RBL-2H3 (treatment amount 100 µg/mL), 22.2 ± 0.32 % inhibition. Also, the “Pain inhibition percentage (%)(50 mg/kg, po)” value in assay [1] is 69.2%.
Consider `C[C@@H]1C[C@H]2[C@@H]3CCC4=CC(=O)C=C[C@]4(C)[C@@]3(F)[C@@H](O)C[C@]2(C)[C@@]1(O)C(=O)CO` [dexamethasone], for which the average score in assay [3] (group mean of total clinical score, control group 11.8) is reported as 6.3. The “visual clinical score Right back leg” value in assay [3] (individual animals No. 1-7, extract 100 mg/kg oral 3 weeks, dexamethasone 1 mg/kg oral) is on record as 1. In addition, in assay [3] (setting [5]), the “visual clinical score Left back leg” value is 1 (5×) and 2 (2×); the “visual clinical score Left front leg” value is 3 (2×) and 2 (3×) and 1 (2×); the “visual clinical score Right front leg” value was 3 (2×) and 2 (3×) and 1 (2×); the “visual clinical score Total” value was 8 and 7 (2×) and 6 (2×) and 5 (2×).
